According to patent US4518789A, “Phenyl alpha-acyloxyacetamide derivatives and their therapeutic use” (priority 1983, dated 1985):

How the values were obtained:
Type in all cases: in vivo
summer eczema-prurigo = assay: Oral anti-scratch (anti-pruritic) treatment of dogs; conditions: for adverse effects on repeated dosing: dog, in vivo, po; for duration of anti-scratch or anti-pruritic effect / drowsiness or intoxication / time to stop scratching / anti-pruritic or anti-scratching effect on repeated dosing: dogs; for duration of anti-scratch or anti-pruritic effect / drowsiness or intoxication / time to stop scratching: oral single dose 5 to 10 mg/kg; for drowsiness or intoxication / time to stop scratching: all three dogs; for anti-pruritic or anti-scratching effect on repeated dosing: oral, repeated at intervals of two to several days
Method: Three dogs with summer eczema-prurigo were treated with oral administration of phenyl-alpha-acyloxyacetamide derivatives. Gelatin capsules containing N-ethyl phenyl-alpha-acetoxyacetamide or N-phenethyl phenyl-alpha-acetoxyacetamide at dosages ranging from 50 mg to 150 mg per capsule were prepared according to Examples. Single doses of 5 mg/kg to 10 mg/kg were administered orally to the dogs.
Oral doses containing N-ethyl phenyl-alpha-acetoxyacetamide or N-phenethyl phenyl-alpha-acetoxyacetamide were administered repeatedly to the dogs at intervals of two to several days.

[1] = test system: itch provoked by papain or histamine dihydrochloride; assay: Anti-pruritic effect on normal human skin (papain or histamine induced itch); conditions: 2 to 5% topical, normal human adult volunteers
Method: Itch provoking pruritic compositions were prepared as follows: papain 0.5% solution was prepared by dissolving papain 50 mg in 10 ml of saline, and histamine 0.2% solution was prepared by dissolving histamine dihydrochloride 20 mg in 10 ml of saline. Itching was provoked or induced as follows: a pruritic composition in a volume of 0.05 ml containing papain or histamine dihydrochloride as a pruritic agent was topically applied on the flexor forearm of normal human adult volunteers and the skin site was gently pricked rapidly through the solution with a 26-gauge needle to the level of the papillary dermis as described by Bernstein et al. (J. E. Bernstein, R. M. Swift, K. Soltani and A. L. Lorincz: Antipruritic Effect of an Opiate Antagonist, Naloxone Hydrochloride in Journal of Investigative Dermatology 78, 82-83, 1982). This technique provoked or induced itch sensation at the test skin site within a few minutes following the topical application of the pruritic composition. After itch sensation had been induced a composition containing 2 to 5% N-ethyl phenyl-alpha-acetoxyacetamide, N-phenethyl phenyl-alpha-acetoxyacetamide or other phenyl-alpha-acyloxyacetamide derivatives of the instant invention was topically applied on the pruritic skin site. The vehicle alone cream containing no active ingredient was used as a control.

[2] = test system: hind limb arthritis secondary to hip dysplasia; assay: Analgesic effects, oral, dogs with arthritis; conditions: two dogs, oral approximately 8 mg per kg
Method: To test whether in addition to tranquilizing effects in animals, analgesic properties of phenyl-alpha-acyloxyacetamide derivatives of the instant invention might exist we administered systemically these compounds to dogs. N-ethyl phenyl-alpha-acetoxyacetamide or N-phenethyl phenyl-alpha-acetoxyacetamide in single oral doses of approximately 8 mg per kg was given to two dogs disabled with hind limb arthritis secondary to hip dysplasia. One dog weighed 23 kg; the other weighed 28 kg.
The disability in both animals was such that they were unable to jump up upon a test table, 45 cm L×45 cm W×45 cm H, on which had been placed a piece of food as an inducement; nor were they able to run about or romp, their movements being limited to walking with evident stiffness of gait.

| SMILES | adverse effects on repeated dosing (summer eczema-prurigo) | duration of anti-scratch or anti-pruritic effect (summer eczema-prurigo) | drowsiness or intoxication (summer eczema-prurigo) | time to stop scratching (summer eczema-prurigo) | anti-pruritic or anti-scratching effect on repeated dosing (summer eczema-prurigo) | Anti-pruritic Effect [1] | physical incapacities [2] | time after administration at which incapacities were diminished [2] |
| --- | --- | --- | --- | --- | --- | --- | --- | --- |
| CC(=O)OC(C(=O)NCCc1ccccc1)c1ccccc1 (stereo not drawn) [N-phenethyl phenyl-alpha-acetoxyacetamide] | No evidence of adverse effects was detected | approximately 8 hours | mentally alert as usual and did not have any signs or symptoms of drowsiness or intoxication | one | the same anti-pruritic or anti-scratching effect | substantial anti-pruritic effect | diminished | Two to three |
| CCNC(=O)C(OC(C)=O)c1ccccc1 (stereo not drawn) [N-ethyl phenyl-alpha-acetoxyacetamide] | No evidence of adverse effects was detected | approximately 8 hours | mentally alert as usual and did not have any signs or symptoms of drowsiness or intoxication | one | the same anti-pruritic or anti-scratching effect | substantial anti-pruritic effect | diminished | Two to three |
